Paper PMC12441861, “Next-Generation Lipid Prodrugs Orally Deliver Tenofovir via Enhanced Chylomicron Incorporation” (ACS Pharmacology & Translational Science, 2025)
Read-outs that look alike come from different tables or passages of the source.

Legend:
[1] = Cytotoxicity, ATP luminescence (Cell Titer Glow) assay; details: human
Description: To measure cytotoxicity, HeLa-derived TZM-bl cells , were treated with serial dilutions of each drug, and viability was assessed after 48 h. Two methods were used: an ATP luminescence assay, which measures cellular ATP levels as an indicator of metabolic activity (compounds 8a–d), and an MTT assay, which evaluates cell viability via mitochondrial enzymatic activity (compounds 15b, 21a, and 21b).
The TZM-bl cell line (BEI Resources, ARP-8129) was used to evaluate both cell viability and HIV pseudovirus infectivity reduction. Cytotoxicity in this cell line was measured via two methods. The first method, an ATP luminescence assay, was used for compounds 15a, 15b, 21a, and 21b as such: 6000 TZM-bl cells per well were seeded in a 96-well plate and incubated at 37 °C with 5% CO2 for 24 h. Compounds were prepared as serial dilutions (final concentrations of 1, 0.2, 0.04, 0.008, and 0.0016 μM) in complete DMEM with DEAE-Dextran at 40 μg/mL to mimic HIV infectivity conditions. Solutions were added to the cells and incubated for another 48 h. Viability was assessed using the Promega Cell Titer Glow (CTG) Assay (cat No. G9242) by adding a 50% PBS-CTG solution to each well and measuring luminescence, which correlates with ATP levels, on an Agilent BioTek Synergy HT reader. Cytotoxicity of compounds 8a–d was determined using a colorimetric assay based the conversion of MTT (3-(4,5-dimethylthiazol-2-yl)-2,5-diphenyltetrazolium bromide) to formazan as described previously. TZM-bl cells were plated into 96-well tissue culture plates 1 day prior to performing the MTT assay. A series of 10 3-fold dilutions of each compound was performed from a starting concentration of 10 mM and each dilution was tested for a reduction in cell viability according to the manufacturer’s instructions (CyQuant MTT Cell Viability Assay, ThermoFisher, V13154). Wells containing TZM-bl cells with media only were used as a control. Briefly, serial dilutions of each test compound were added to the plated TZM-bl cells. At 48 h, the media was removed and replaced with 100 mL of fresh culture medium. 10 mL of 12 mM MTT solution was added to each well and incubated at 37 °C for 4 h. 85 mL of supernatant was then removed from each well and replaced with 50 mL of DMSO. Following a 10 min incubation at 37 °C, the absorbance of each well was determined at 540 nm using a Biotek Synergy Neo2 multimode reader and Gen5 v3.02 software.

[2] = Mouse oral PK and tissue distribution, fed state; type: in vivo; details: for Tmax / AUC(0-t) / Cmax: male, C57BL/6, mouse; for AUC(0-t): read-out: Plasma AUC0-18h; for improvement in lung AUC over TXL / improvement in lung AUC over non-BOG counterpart (21a vs 15a, 21b vs 15b) / increase in plasma AUC relative to TXL / increase in plasma AUC relative to non-BOG counterpart (21a vs 15a, 21b vs 15b) / increase in plasma Cmax relative to TXL / increase in plasma Cmax relative to non-BOG counterpart (21a vs 15a, 21b vs 15b): 10 mg/kg oral
Excerpt: Given the increased packaging of the CF3-modified lipids into CMs compared to their ω-unmodified congeners, we selected these compounds for PK studies in mice. We hypothesized that, following oral administration, our modified prodrugs would favor CM-mediated transport into the lymphatics over absorption into mesenteric veins feeding into the portal system. By circumventing direct transport to the liver, these prodrugs are expected to achieve elevated levels in the lung relative to the liver, as lymph empties into the jugular venous angle and mixes with blood en route to the pulmonary arteries (Figure ). For all mouse PK experiments, prodrugs were formulated in a 9:1 mixture of olive oil and ethanol, then administered to male C57BL/6 mice via oral gavage at a dose of 10 mg/kg. Organs (liver, lung, and plasma) were harvested at 1, 2, 4, 8, and 18 h postdose, per the protocol described by our groups previously. Concentrations of prodrug were quantified using LC-MS/MS after tissue homogenization, extraction, and sample preparation.
The compounds TXL, 15a, 15b, 21a, 21b, and a vehicle control were prepared at a concentration of 1 mg/mL in a 90:10 solution of olive oil (Sigma-Aldrich, cat. No. O1514) and 190-proof ethanol. The dosing for each mouse was calculated based on individual body weights to achieve a final dose of 10 mg/kg. For example, a 20 g mouse would receive 200 μL of the 1 mg/mL drug formulation, while a 25 g mouse would receive 250 μL.
In accordance with the American Chemical Society Guidelines to Publication of Chemical Research, we affirm the use of standard ethical practices when housing and handling research animals, as ensured by the Emory University’s Institutional Animal Care and Use Committee (IACUC) and the Division of Animal Resources (DAR) through a rigorous protocol review, amendment, and approval process. A total of 220 C57BL6/J male mice (aged 11–12 weeks, weight, 22–30 g) were used for these studies. Each mouse was weighed, recorded, and ear-clipped for identification. The dosing for each mouse was calculated based on individual body weights to achieve a final dose of 10 mg/kg. Animals were anesthetized using isoflurane gas before receiving a single dose of drug prepared as described above using a 22-gauge gavage needle attached to a calibrated syringe.
Time points for tissue collection were 1, 2, 4, 8, and 18 h for unfasted mice, and 1, 2, 4, 8, and 24 h for fasted mice. At each time point, the mice (n = 4 per compound per time point) were anesthetized using isoflurane and subjected to cardiac puncture for blood collection into EDTA-coated tubes. The collected blood samples were immediately placed on ice before the mice were humanely euthanized via cervical dislocation. Brain, liver, lungs, and kidneys were harvested, rinsed in PBS, and placed in prelabeled tubes. Tissues were flash-frozen in liquid nitrogen then transferred to dry ice for storage.
Blood samples were collected into EDTA-coated tubes and centrifuged at 400 RCF for 10 min at 4 °C to separate plasma from the cellular components. The plasma layer was carefully pipetted off and stored in separate prelabeled and preweighed tubes. All tissues were stored at −80 °C until time for processing.
Tissues were weighed (∼50 mg) into homogenization tubes and ACN containing a 10 μM ITSD was added to achieve a final solvent-to-tissue ratio of 4:1. Homogenization beads were added, and the tissues were processed (Biotage Lysera, part no. 19–060) using two 20 s pulses with a 10 s interval period. Homogenate was centrifuged at maximum speed for 1 h, supernatant collected and analyzed via LC-MS using the method described previously. For plasma samples, a 50 μL aliquot was added 200 μL of ACN containing ITSD. The mixture was vortexed thoroughly and then centrifuged to precipitate proteins, with the supernatant collected and analyzed via LC-MS. […]

[3] = Metabolic stability in human liver microsomes; type: in vitro ADME; details: pH 7.4, read-out: Metabolic Stability HLM t1/2
Description: Assays employed human liver microsomes (HLMs, 20 mg/mL) from Xenotech. A 10 mM NADPH stock was prepared in deionized H2O, and test compounds were dissolved in 100% MeOH to a final concentration of 10 mM. The stock solutions were diluted to 500 μM in 100 mM potassium phosphate buffer (pH 7.4), keeping the final MeOH concentration below 0.2%. Reaction mixtures were prepared by combining 928 μL phosphate buffer, 55 μL liver microsomes, and the test compound solution to a final concentration of 3 μM. Verapamil was used as a positive control. The reactions were initiated with the addition of 110 μL of 10 mM NADPH. Aliquots were taken in duplicate at 0, 5, 10, 15, and 30 min, quenched with 100 μL of cold MeOH containing 2 μM internal standard (d 5-7-ethoxy coumarin), and centrifuged at 12,000 RCF for 5 min. The supernatants were then transferred to LC-MS vials for analysis. The average of each duplicate was normalized to the 0 min time point, representing 100% remaining (0% metabolism).

[4] = Metabolic stability in mouse liver microsomes; type: in vitro ADME; details: pH 7.4, read-out: Metabolic Stability MLM t1/2
[5] = in vivo, po, 10 mg/kg, single oral dose 10 mg/kg, fed mice, read-out: Liver Tmax
[6] = in vivo, po, 10 mg/kg, single oral dose 10 mg/kg, fed mice, read-out: Lung Tmax
[7] = in vivo, po, 10 mg/kg, single oral dose 10 mg/kg, fed mice, read-out: Plasma Tmax
[8] = in vivo, single oral dose 10 mg/kg, fed mice
[9] = in vivo, single oral dose 10 mg/kg, fed mice, read-out: Plasma Cmax
[10] = single oral dose 10 mg/kg, fed mice
[11] = liver, single oral dose 10 mg/kg, fed mice, read-out: Liver Tmax
[12] = plasma, single oral dose 10 mg/kg, fed mice
[13] = plasma, single oral dose 10 mg/kg, fed mice, read-out: Plasma Tmax

C[C@H](Cn1cnc2c(N)ncnc21)OCP(=O)(O)OCCCOCCCCCCCCCCCCCCCC(F)(F)F [15a, Ammonium[(1R)-2-(6-aminopurin-9-yl)-1-methyl-ethoxy]methyl-[3-(16,16,16-trifluorohexadecoxy)propoxy]phosphinate]
CC50 at 48 h [1]: > 1000 nM
Tmax [2, 5]: 2 h
Tmax [2, 6]: 8 h
Tmax [2, 7]: 2 h
AUC(0-t) [2, 8]: 706 ng·h/mL
Cmax [2, 9]: 127 ng/mL
Liver AUC0-18h [2, 10]: 190,000 h*ng/g
Liver Cmax [2, 10]: 27,000 ng/g
Lung Cmax [2, 10]: 729 ng/g
half-life at 3 µM [3]: > 120 min
half-life at 3 µM [4]: > 120 min

CCCCCCCCCCCCCCCCOCCCOP(=O)(O)CO[C@H](C)Cn1cnc2c(N)ncnc21 [TXL, hexadecyloxypropyl (HDP)-TFV, reference compound]
CC50 at 48 h [1]: > 1000 nM
Tmax [2, 5]: 2 h
Tmax [2, 6]: 8 h
Tmax [2, 7]: 8 h
Tmax ([2]; in vivo, po, 10 mg/kg, tissue not stated, read-out: Tmax (fed)): 8 h
AUC(0-t) [2, 8]: 298 ng·h/mL
Cmax [2, 9]: 29.1 ng/mL
Liver AUC0-18h [2, 10]: 25,600 h*ng/g
Liver Cmax [2, 10]: 2,660 ng/g
Lung Cmax [2, 10]: 583 ng/g
half-life at 3 µM [4]: > 120 min

C[C@H](Cn1cnc2c(N)ncnc21)OCP(=O)(O)OC[C@H](COCCCCCCCCCCCCCCCC(F)(F)F)OCc1ccccc1 [21a, Ammonium[(1R)-2-(6-Aminopurin-9-yl)-1-methyl-ethoxy]methyl-[(2S)-2-benzyloxy-3-(16,16,16-trifluorohexadecoxy)propoxy]phosphinate]
CC50 at 48 h ([1]; TZM-bl cells): > 1000 nM
improvement in lung AUC over TXL ([2]; fed mice): 10 fold
improvement in lung AUC over non-BOG counterpart (21a vs 15a, 21b vs 15b) ([2]; fed mice): 9 fold
increase in plasma AUC relative to TXL ([2]; fed mice): 16 fold
increase in plasma AUC relative to non-BOG counterpart (21a vs 15a, 21b vs 15b) ([2]; fed mice): 7 fold
increase in plasma Cmax relative to TXL ([2]; fed mice): 32 fold
increase in plasma Cmax relative to non-BOG counterpart (21a vs 15a, 21b vs 15b) ([2]; fed mice): 7 fold
Tmax [2, 11]: 4 h
Tmax ([2]; lung, po, 10 mg/kg, tissue not stated, read-out: Tmax (fed)): 8 h
Cmax [2, 12]: 915 ng/mL
AUC(0-t) [2, 12]: 4710 ng·h/mL
Tmax [2, 13]: 1 h
Liver AUC0-18h [2, 10]: 564,000 h*ng/g
Liver Cmax [2, 10]: 37,600 ng/g
Lung AUC0-18h [2, 10]: 72,300 h*ng/g
Lung Cmax [2, 10]: 7,330 ng/g
half-life at 3 µM [3]: > 120 min
half-life at 3 µM [4]: > 120 min

C[C@H](Cn1cnc2c(N)ncnc21)OCP(=O)(O)OC[C@H](COCCCCCCCCCCCCCCCCCC(F)(F)F)OCc1ccccc1 [21b, Ammonium[(1R)-2-(6-aminopurin-9-yl)-1-methyl-ethoxy]methyl-[(2S)-2-benzyloxy-3-(18,18,18-trifluorooctadecoxy)propoxy]phosphinate]
CC50 at 48 h ([1]; TZM-bl cells): > 1000 nM
improvement in lung AUC over TXL ([2]; fed mice): 4 fold
improvement in lung AUC over non-BOG counterpart (21a vs 15a, 21b vs 15b) ([2]; fed mice): 4 fold
increase in plasma AUC relative to TXL ([2]; fed mice): 15 fold
increase in plasma AUC relative to non-BOG counterpart (21a vs 15a, 21b vs 15b) ([2]; fed mice): 5 fold
increase in plasma Cmax relative to TXL ([2]; fed mice): 28 fold
increase in plasma Cmax relative to non-BOG counterpart (21a vs 15a, 21b vs 15b) ([2]; fed mice): 8 fold
Tmax [2, 11]: 4 h
Tmax ([2]; lung, single oral dose 10 mg/kg, fed mice, read-out: Lung Tmax): 8 h
Cmax [2, 12]: 802 ng/mL
AUC(0-t) [2, 12]: 4530 ng·h/mL
Tmax [2, 13]: 2 h
Liver AUC0-18h [2, 10]: 218,000 h*ng/g
Liver Cmax [2, 10]: 22,000 ng/g
Lung AUC0-18h [2, 10]: 31,100 h*ng/g
Lung Cmax [2, 10]: 3,000 ng/g
half-life at 3 µM [3]: > 120 min
half-life at 3 µM [4]: > 120 min
